Results reported in PubChem BioAssay (NCI).
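Where inhibition never reached the appropriate level, the endpoint shown equals the highest concentration tested. Otherwise, values were interpolated linearly from a five-concentration, 48-hour dose response in 96-well plates. TGI is the concentration that stops growth completely.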

Tests used:
Assay in all cases: NCI-60 cell line screen, 48 h
HL-60(TB) leukemia = system: HL-60(TB) leukemia
NCI-H23 lung = system: NCI-H23 lung
LOX IMVI melanoma = system: LOX IMVI melanoma
CCRF-CEM leukemia = system: CCRF-CEM leukemia
SF-295 CNS = system: SF-295 CNS
UACC-62 melanoma = system: UACC-62 melanoma
T-47D breast = system: T-47D breast
OVCAR-3 ovarian = system: OVCAR-3 ovarian
HCT-15 colon = system: HCT-15 colon
K-562 leukemia = system: K-562 leukemia
SNB-19 CNS = system: SNB-19 CNS
SW-620 colon = system: SW-620 colon
SK-MEL-28 melanoma = system: SK-MEL-28 melanoma
U251 CNS = system: U251 CNS
UO-31 renal = system: UO-31 renal
MDA-N = system: MDA-N
HT29 colon = system: HT29 colon
RXF 393 renal = system: RXF 393 renal
HOP-92 NSCLC = system: HOP-92 NSCLC
MALME-3M melanoma = system: MALME-3M melanoma
KM12 colon = system: KM12 colon
SR leukemia = system: SR leukemia
PC-3 prostate = system: PC-3 prostate
HCT-116 colon = system: HCT-116 colon
M14 melanoma = system: M14 melanoma
MDA-MB-231 breast = system: MDA-MB-231 breast
CAKI-1 renal = system: CAKI-1 renal
SN12C renal = system: SN12C renal
SK-OV-3 ovarian = system: SK-OV-3 ovarian
BT-549 breast = system: BT-549 breast
SK-MEL-2 melanoma = system: SK-MEL-2 melanoma
OVCAR-8 ovarian = system: OVCAR-8 ovarian
COLO 205 colon = system: COLO 205 colon
OVCAR-5 ovarian = system: OVCAR-5 ovarian
IGROV1 ovarian = system: IGROV1 ovarian
MDA-MB-435 = system: MDA-MB-435
NCI-H460 lung = system: NCI-H460 lung
TK-10 renal = system: TK-10 renal
NCI-H226 lung = system: NCI-H226 lung
RPMI-8226 leukemia = system: RPMI-8226 leukemia
MCF7 breast = system: MCF7 breast
HOP-62 NSCLC = system: HOP-62 NSCLC
DU-145 prostate = system: DU-145 prostate
A498 renal = system: A498 renal
UACC-257 melanoma = system: UACC-257 melanoma
NCI/ADR-RES ovarian = system: NCI/ADR-RES ovarian
MOLT-4 leukemia = system: MOLT-4 leukemia
OVCAR-4 ovarian = system: OVCAR-4 ovarian
786-0 renal = system: 786-0 renal
A549 NSCLC = system: A549 NSCLC
EKVX NSCLC = system: EKVX NSCLC
SNB-75 CNS = system: SNB-75 CNS
SF-539 CNS = system: SF-539 CNS
ACHN renal = system: ACHN renal
SK-MEL-5 melanoma = system: SK-MEL-5 melanoma
HS 578T breast = system: HS 578T breast
SF-268 CNS = system: SF-268 CNS
HCC-2998 colon = system: HCC-2998 colon
NCI-H522 lung = system: NCI-H522 lung

Measured: TGI

CC(C)(C)[Si](C)(C)OCC1OC(n2cnc3c(N)ncnc32)CC1OS(C)(=O)=O (centres undefined)
17.3 µM: HOP-92 NSCLC
not listed: 786-0 renal | A549 NSCLC | EKVX NSCLC | SNB-75 CNS | SF-539 CNS | ACHN renal | SK-MEL-5 melanoma | HS 578T breast | SF-268 CNS | HCC-2998 colon | NCI-H522 lung
> 100 µM: all other assays above

O=C1/C(=C/c2ccccc2)CCc2ccccc21
56.1 µM: SN12C renal
40.8 µM: MOLT-4 leukemia
29.7 µM: RXF 393 renal | BT-549 breast
34.4 µM: HOP-62 NSCLC
22.7 µM: SNB-19 CNS
36.7 µM: UACC-62 melanoma
34.7 µM: 786-0 renal
33.5 µM: HCT-116 colon
86.9 µM: HCT-15 colon
37.8 µM: HL-60(TB) leukemia
33 µM: LOX IMVI melanoma
18.3 µM: CCRF-CEM leukemia
31.9 µM: SNB-75 CNS | MALME-3M melanoma
29.2 µM: TK-10 renal
83.2 µM: NCI/ADR-RES ovarian
37.4 µM: M14 melanoma | SF-268 CNS
65.4 µM: NCI-H460 lung
31.4 µM: UACC-257 melanoma
38.9 µM: SR leukemia
38.6 µM: PC-3 prostate | HCC-2998 colon
65.5 µM: OVCAR-8 ovarian
38.2 µM: COLO 205 colon
37 µM: DU-145 prostate
72.4 µM: HS 578T breast
34.2 µM: SW-620 colon
32.3 µM: SK-MEL-5 melanoma
33.4 µM: OVCAR-5 ovarian
20.5 µM: K-562 leukemia
67.5 µM: SK-OV-3 ovarian
30.2 µM: OVCAR-3 ovarian
57.4 µM: A549 NSCLC
34.6 µM: MCF7 breast
35 µM: NCI-H226 lung
28 µM: OVCAR-4 ovarian
31.3 µM: SF-539 CNS
38.3 µM: SK-MEL-28 melanoma
28.2 µM: MDA-MB-435
34 µM: SF-295 CNS
32.7 µM: HT29 colon | CAKI-1 renal
9.42 µM: RPMI-8226 leukemia
54.3 µM: IGROV1 ovarian
33.8 µM: KM12 colon
32.4 µM: ACHN renal
33.7 µM: EKVX NSCLC
87.7 µM: MDA-MB-231 breast
34.5 µM: A498 renal
27.8 µM: UO-31 renal
30.4 µM: U251 CNS
32.2 µM: MDA-N
45.8 µM: NCI-H23 lung

CC1(C)CC(=O)c2c(nc(SSc3nc4c(c(-c5ccc(Br)cc5)c3C#N)C(=O)CC(C)(C)C4)c(C#N)c2-c2ccc(Br)cc2)C1
not listed: UACC-62 melanoma | MDA-MB-231 breast | MDA-MB-435
> 10 µM: all other assays above
